Molecular target: T1, Hyaluronidase from bovine testes (Bos taurus, UniProt Q2YDK3)
T1 sequence (Q2YDK3 36-553): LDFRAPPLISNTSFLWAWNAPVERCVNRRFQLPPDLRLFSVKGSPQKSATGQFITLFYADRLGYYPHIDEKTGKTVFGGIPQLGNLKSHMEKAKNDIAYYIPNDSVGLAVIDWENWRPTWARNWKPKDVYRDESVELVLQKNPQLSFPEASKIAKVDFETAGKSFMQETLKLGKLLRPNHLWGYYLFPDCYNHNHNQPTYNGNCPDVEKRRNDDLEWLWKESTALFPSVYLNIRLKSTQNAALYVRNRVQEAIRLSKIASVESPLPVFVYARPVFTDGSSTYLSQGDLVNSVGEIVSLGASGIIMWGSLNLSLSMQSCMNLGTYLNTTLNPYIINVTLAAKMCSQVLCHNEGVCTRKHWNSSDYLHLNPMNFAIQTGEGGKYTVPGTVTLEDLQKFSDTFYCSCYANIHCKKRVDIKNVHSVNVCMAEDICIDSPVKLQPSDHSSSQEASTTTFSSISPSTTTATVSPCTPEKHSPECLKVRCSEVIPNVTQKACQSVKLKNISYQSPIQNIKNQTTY
Test: colorimetric hyaluronidase inhibition assay
Type: biochemical

| IC50 | SMILES |
| --- | --- |
| 2.82 ± 0.038 mM | O=C(O)CCC(=O)C(=O)O [AKG, α-ketoglutarate] |
| 0.36 ± 0.041 mM | O=C(O)c1cc(=O)c2c(OCC(O)COc3cccc4oc(C(=O)O)cc(=O)c34)cccc2o1 [DSCG, disodium cromoglycate] |

Source: article PMC11444863 (Bioscience of Microbiota, Food and Health, 2024)
